The structures appear in SMILES notation.

This assay addresses T1, c20S (Homo sapiens, UniProt P20618+P28074).
T1 construct: purchased Boston Biochem
The experiment in a line: Calculation of inhibition constants (inactivation kinetics), c20S. The assay is classed as biochemical. On the procedure:
The rate of AMC release was calculated in the presence of serial dilution of each inhibitor. The rate of product formation were calculated at 30 min intervals for 4 hours, and normalized to activity DMSO control to calculate inactivation curves. Kobs values for each inhibitor concentration were calculated from inactivation curves, and inhibition constants KI and kinact were calculated by non-linear regression of Kobs and inhibitor concentration using GraphPad Prism 6 software.

Regarding `CCCCCC(=O)N[C@@H](C(=O)N[C@@H](CCCC)C(=O)N[C@@H](CC(C)C)C(=O)[C@@]1(C)CO1)C(C)C` [Analog 18, (S)-2-((R)-2-hexanamido-3-methylbutanamido)-N—((S)-4-methyl-1-((R)-2-methyloxiran-2-yl)-1-oxopentan-2-yl)hexanamide], the Ki (c20S) was 39.2 µM. Further, where the note is “kinact/Ki, 18 versus 1”, the “loss in potency to the human c20S proteasome” value is given as 100 fold.
